One assay relates to C. elegans. In words: Protein uptake in C. elegans (phiLOV protein conjugates). Type of assay: in vivo, Caenorhabditis elegans. The conditions noted are these: positive control. The protocol: The effective PhiLOV protein conjugate in M9 buffer was taken from the chemical ligation and purification experiments. The amount of M9 buffer added was determined by the final concentration required. Nematodes (30-40 per protein sample to be analysed) were picked and added to the protein solution, and the resulting suspension was treated with OP50 E. coli solution for nematode sustenance. The nematode suspension was incubated at 20° C. in the dark, and covered with aluminium foil.
Aliquots (10 to 25 μL) were taken at 24, 48 and 72 h. and transferred into a new Eppendorf tube at each time point and diluted with M9 buffer (200 μL). The new suspension was placed in ice (for 1-2 min) and then centrifuged at 10.000 rpm for 1 min. The supernatant was removed and the concentrated nematodes were washed again (2×200 μL). In the final wash, a residual volume (approx. 30 μL) was left with the nematodes.
For the microscopy studies, a 1.5% agarose solution in water was warmed up for 1-1.5 min in a standard household microwave (Power 4). Two drops of the agarose solution were placed on a glass slide and covered with another glass slide. After 1 min, the two slides were taken apart from each other carefully. On the slide where the agarose remained, 15-20 μL of the final C. elegans solution was placed. To this was added a 20 mM sodium azide solution (5 μL) to inhibit nematode mobility.
Vaseline was placed around the agarose area before replacing the top cover slip. The cover slips were not pressed together. The nematodes were then analysed using a Zeiss Axiskop 2 Plus microscope using a Hamamatsu Orca-ER (CA 742-95) camera. The images were resolved using OpenLab on a Mac operating system.
Feeding was repeated after 48 h. with addition of 2 μL of OP50 bacteria for feeding purposes, and the worm incubation was continued in the dark at […].
Using the approach described above, 11 protein conjugates were tested for their ability to deliver the phiLOV protein into nematodes. […] The location and efficiency of the delivery can be modulated by small structural modifications to the delivery vehicle, as shown by compounds P1-P11 (including negative control, positive control using compound 1 and untagged phiLOV protein control).

Another assay deals with P. falciparum. Briefly: Plasmodium falciparum testing: uptake by infected and non-infected red blood cells. Type of assay: cell-based. The conditions noted are these: 25 μM, 45 minutes, 37° C., synchronised stage and mix-stage cultures. The protocol:
Compounds 1, 5, 9, 10 and 11 were tested for uptake in both synchronised stage and mix-stage cultures at 25 μM concentrations.

The next assay has as its system T. annulata. In words: Theileria annulata testing: uptake. Type of assay: cell-based. The conditions noted are these: 1 hour, 37° C. The protocol:
T. annulata were cultured using RPMI 1640 with 10% Albumax II (Thermo-Fisher) serum. A standard hemocytometer was used to calculate the concentration of cells in the parent culture. […] For each compound and concentration to be tested, 2 mL of the culture were centrifuged at 1,000 rpm for 5 minutes. The medium was removed before the cells were resuspended in 950 μL of complete medium containing the compound to be tested at the desired concentration. This was prepared from a 100 mM stock solution of compound in DMSO. Once the cells were resuspended they were transferred to a 5 well plate (1 mL capacity per well). They were then incubated for 1 hour at 37° C. in an atmosphere of 5% CO2 in air. After the incubations were complete the contents of each well were transferred to a 10 mL centrifuge tube. Cold RPMI 1640 (Thermofisher) or HBSS added to obtain a volume of 5 mL. The suspension was then centrifuged at 1,000 rpm and at 4° C. for 5 minutes. […] After the final washing the pellet of cells was resuspended in a minimum amount of RPMI 1640 and then spotted onto a glass slide. The slide was then covered with a cover slip and analysed using Olympus BX60 UV microscope system with a Spot RT3 camera and Spot Image software with a FITC fluorescent filter.

In the case of `CC1=CC(C)=[N+]2C1=Cc1ccc(CCCn3cc(CCNC(=O)/C=C/NC(=O)[C@@H]4OC(C)(C)OCC4(C)C)nn3)n1[B-]2(F)F` [Compound 1, (R,E)-N-((((3-[4,4-Difluoro-5,7-dimethyl-4-bora-3a,4a-diaza-s-indacene-3-yl]propyl)-1H-1,2,3-triazol-4-yl)ethylamino)-3-oxoprop-1-enyl)-2,2,5,5-tetramethyl-1,3-dioxane-4-carboxamide], the “location of fluorescence in C. elegans” value with C. elegans (24 h incubation) is “fluorescence could be observed in the pharynx, gut lumen and gut cells of both adults and larval stages of C. elegans”; with C. elegans (48 h incubation), “fluorescence was still localised in the pharynx, gut lumen and gut cells of both adults and larvae”; in the assay with C. elegans (72 h incubation), “fluorescence was still localised in the pharynx, gut lumen and gut cells of both adults and larvae”. Moreover, the “state of adult nematodes” value with C. elegans (72 h point (same seen with M9 buffer negative control)) was “the adult nematodes were dead”. In addition, in the assay with P. falciparum, the “uptake by infected and non-infected red blood cells” value is on record as “not taken up either by infected nor non-infected red blood cells in every culture”. For the same compound, the “uptake in T. annulata” value with T. annulata is “very limited uptake”.

The values are drawn from patent publication US20220054658A1, “CONJUGATES” (Transfection Holdings Limited, priority 2018, published 2022).
